For one test, the target named is T1, PSMA (Homo sapiens, UniProt Q04609).
T1 construct: endogenous in cells; host or cells: LNCaP prostate cancer cells
As to the kind of experiment: In vitro competition binding assay using LNCaP cells and [18F]DCFPyL as radioligand. Particulars: displacement of [18F]DCFPyL from LNCaP cells, n = 3; read-out: PSMA binding affinity (Ki). The method, then: The binding assays were conducted following previously published procedures using LNCaP cells and [^18F]DCFPyL as the radioligand [17]-[19]. Briefly, LNCaP cells (400,000/well) were plated onto a 24-well poly-D-lysine coated plate for 48 h. Growth media was removed and replaced with HEPES buffered saline (50 mM HEPES, pH 7.5, 0.9% sodium chloride) and the cells were incubated for 1 h at 37 °C. [^18F]DCFPyL (0.1 nM) was added to each well (in triplicate) containing various concentrations (0.5 mM - 0.05 nM) of tested nonradioactive Ga-complexed compounds. Non-specific binding was determined in the presence of 10 µM non-radiolabeled DCFPyL. The assay mixtures were further incubated for 1 h at 37 °C with gentle agitation. Then, the buffer and radioligand were removed, and cells were washed twice with cold HEPES buffered saline. To harvest the cells, 400 µL of 0.25 % trypsin solution was added to each well. Radioactivity was measured on a PerkinElmer (Waltham, MA) Wizard2 2480 automatic gamma counter. Data analyses of Ki were performed using the nonlinear regression algorithm of GraphPad (San Diego, CA) Prism 7 software.
A general note: Displacement assays read how much labelled ligand stays bound in the presence of the test substance.

Another test relates to LNCaP tumor-bearing mice. As to the kind of experiment: Radioligand therapy study in LNCaP tumor-bearing NRG mice. The note with it: 500 pmol nonradioactive.

Ki and Median survival data for three compounds are collected here from publication PMC9475448, “What a difference a methylene makes: replacing Glu with Asp or Aad in the Lys-urea-Glu pharmacophore of PSMA-targeting radioligands to reduce kidney and salivary gland uptake” (Theranostics, 2022).

As a reminder, the Ki is a measure of affinity in units of concentration, obtained from inhibition or displacement.

T1 sequence (Q04609 whole entry): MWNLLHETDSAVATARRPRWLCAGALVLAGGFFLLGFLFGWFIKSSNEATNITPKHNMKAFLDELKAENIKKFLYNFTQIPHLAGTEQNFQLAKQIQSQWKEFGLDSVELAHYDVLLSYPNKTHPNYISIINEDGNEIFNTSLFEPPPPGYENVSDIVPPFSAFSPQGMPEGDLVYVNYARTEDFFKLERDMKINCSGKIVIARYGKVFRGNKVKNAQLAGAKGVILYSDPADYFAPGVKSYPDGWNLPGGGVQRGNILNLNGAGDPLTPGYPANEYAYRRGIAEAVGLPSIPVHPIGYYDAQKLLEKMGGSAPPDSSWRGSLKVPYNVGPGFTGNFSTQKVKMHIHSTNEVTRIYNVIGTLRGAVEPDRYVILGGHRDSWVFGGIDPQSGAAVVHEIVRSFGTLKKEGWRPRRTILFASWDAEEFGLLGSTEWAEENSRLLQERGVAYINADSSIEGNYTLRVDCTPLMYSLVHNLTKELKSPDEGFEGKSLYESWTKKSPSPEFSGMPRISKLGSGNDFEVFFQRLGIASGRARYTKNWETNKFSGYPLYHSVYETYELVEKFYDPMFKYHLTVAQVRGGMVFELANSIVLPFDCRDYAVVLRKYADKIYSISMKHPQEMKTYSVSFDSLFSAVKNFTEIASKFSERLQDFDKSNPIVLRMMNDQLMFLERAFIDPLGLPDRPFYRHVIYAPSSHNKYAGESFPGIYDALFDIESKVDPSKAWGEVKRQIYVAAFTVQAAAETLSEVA

As for `O=C([O-])CN1CCN(CC(=O)[O-])CCN(CC(=O)NCC2CCC(C(=O)NC(Cc3c4ccccc4cc4ccccc34)C(=O)NCCCCC(NC(=O)NC(CCCCC(=O)O)C(=O)O)C(=O)O)CC2)CCN(CC(=O)[O-])CC1.[Ga+3]` (single isomer, unassigned) [Ga-HTK03189A], the Ki at PSMA amounted to 550 ± 35.7 nM.
The same measure, in the same setting: the figure for `O=C([O-])CN1CCN(CC(=O)[O-])CCN(CC(=O)NCC2CCC(C(=O)NC(Cc3c4ccccc4cc4ccccc34)C(=O)NCCCCC(NC(=O)NC(CC(=O)O)C(=O)O)C(=O)O)CC2)CCN(CC(=O)[O-])CC1.[Ga+3]` (stereo not shown) [Ga-HTK03161] is 3.88 ± 0.66 nM.
As to `O=C([O-])CN1CCN(CC(=O)[O-])CCN(CC(=O)NCC2CCC(C(=O)NC(Cc3c4ccccc4cc4ccccc34)C(=O)NCCCCC(NC(=O)NC(CCCC(=O)O)C(=O)O)C(=O)O)CC2)CCN(CC(=O)[O-])CC1.[Lu+3]` (stereo not shown) [Lu-HTK03149], the inhibition constant (Ki) at PSMA is 1.57 ± 0.42 nM. Besides, the Median survival in the test on LNCaP tumor-bearing mice amounted to 18 days.
